Reference: patent publication US20170122958A1, “Enzymes Functional Probes” (University of Dundee, priority 2013, published 2017)

How the values were obtained:
[1] = target: T1, Brd2(1) (Homo sapiens, UniProt P25440); assay: DSF thermal shift; assay type: binding; settings: wild type
T1 construct: Plasmids of the eight single BET bromodomain constructs Brd2(1), Brd2(2), Brd3(1), Brd3(2); His6 (N); made in house; host or cells: E. coli BL21(DE3)

[2] = target: T2, Brd2(1)*(Val103-Ala) (Homo sapiens, UniProt P25440, V103A); assay: DSF thermal shift; assay type: binding; settings: mutant
T2 construct: Plasmids of the eight single BET bromodomain constructs Brd2(1), Brd2(2), Brd3(1), Brd3(2); His6 (N); made in house; host or cells: E. coli BL21(DE3)
T2 sequence (P25440 74-180 V103A limits assumed): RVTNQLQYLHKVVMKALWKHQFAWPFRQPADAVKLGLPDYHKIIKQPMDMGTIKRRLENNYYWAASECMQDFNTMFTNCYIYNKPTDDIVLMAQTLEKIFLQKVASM

[3] = target: T3, Brd2(2) (Homo sapiens, UniProt P25440); assay: DSF thermal shift; assay type: binding; settings: wild type
T3 construct: Plasmids of the eight single BET bromodomain constructs Brd2(1), Brd2(2), Brd3(1), Brd3(2); His6 (N); made in house; host or cells: E. coli BL21(DE3)
T3 sequence (P25440 344-453 limits assumed): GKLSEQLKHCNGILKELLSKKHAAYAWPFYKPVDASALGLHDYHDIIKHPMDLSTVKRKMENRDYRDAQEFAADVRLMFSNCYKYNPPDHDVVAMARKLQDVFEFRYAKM

[4] = target: T4, Brd2(2)*(Val376Ala) (Homo sapiens, UniProt P25440, V376A); assay: DSF thermal shift; assay type: binding; settings: mutant
T4 construct: Plasmids of the eight single BET bromodomain constructs Brd2(1), Brd2(2), Brd3(1), Brd3(2); His6 (N); made in house; host or cells: E. coli BL21(DE3)
T4 sequence (P25440 344-453 V376A limits assumed): as the sequence (P25440 344-453 limits assumed) above, with V33A counted along it

[5] = target: T5, Brd4(1) (Homo sapiens, UniProt O60885); assay: DSF thermal shift; assay type: binding; settings: wild type
T5 construct: Plasmids of the eight single BET bromodomain constructs Brd2(1), Brd2(2), Brd3(1), Brd3(2), Brd4(1), Brd4(2), Brdt(1) and Brdt(2); His6 (N); made in house; host or cells: E. coli BL21(DE3)

[6] = target: T6, Brd4(2) (Homo sapiens, UniProt O60885); assay: DSF thermal shift; assay type: binding; settings: wild type
T6 construct: Plasmids of the eight single BET bromodomain constructs Brd2(1), Brd2(2), Brd3(1), Brd3(2), Brd4(1), Brd4(2), Brdt(1) and Brdt(2); His6 (N); made in house; host or cells: E. coli BL21(DE3)

[7] = target: T7, brd4(1)L094A (Homo sapiens, UniProt O60885, L94A); assay: DSF thermal shift; assay type: binding; settings: mutant
T7 construct: Plasmids of the eight single BET bromodomain constructs Brd2(1), Brd2(2), Brd3(1), Brd3(2), Brd4(1), Brd4(2), Brdt(1) and Brdt(2); His6 (N); made in house; host or cells: E. coli BL21(DE3)

[8] = target: T8, brd4(2)L387A (Homo sapiens, UniProt O60885, L387A); assay: DSF thermal shift; assay type: binding; settings: mutant
T8 construct: Plasmids of the eight single BET bromodomain constructs Brd2(1), Brd2(2), Brd3(1), Brd3(2), Brd4(1), Brd4(2), Brdt(1) and Brdt(2); His6 (N); made in house; host or cells: E. coli BL21(DE3)

[9] = target: T1, Brd2(1); assay: ITC reverse titration of protein into compound; assay type: binding
Protocol: (§1) ITC experiments were carried out on a ITC200 instrument from MicroCal™ Experiments were conducted at 3 different temperatures 15° C., 25° C. and 30° C., while stirring at 1000 rpm. Buffers of proteins, peptide and compounds were matched to 20 mM HEPES pH 7.5 at 25° C. and 100 mM NaCl. Frozen protein was buffer exchanged as described for the DSF experiments. Each titration comprised 1 initial injection of 0.4 μl lasting 0.8 s, followed by 19 injections of 2 μl lasting 4 s each at 2 min intervals. The initial injection was discarded during data analysis. Standard and reverse titrations were conducted depending on the binding partners.
(§2) Reverse titrations were conducted to test the binding of the known ligands and the novel chemical probes to the wild types and the mutants. Experiments were carried out either at 25° C. or 30° C. […] In cases where the compound was solubilized in dimethyl sulfoxide, DMSO concentration was adjusted to 1% both in the syringe and in the cell.
(§3) All the data was fitted to a single binding site model using the Microcal LLC ITC200 Origin software provided by the manufacturer to yield enthalpies of binding (ΔH) and binding constants (Kas). Further thermodynamic parameters were calculated from these values (changes in entropy ΔS, changes in free energy AG and dissociation constants (Kds)).

[10] = target: T3, Brd2(2); assay: ITC reverse titration of protein into compound; assay type: binding; settings: ITC 30° C., 1% DMSO
Protocol: as §1, §2, §3

[11] = system: Brd2(1) and (2) wild type and leucine to alanine, valine and isoleucine mutants; assay: DSF thermal stabilization (FIG. 15); assay type: binding, human; settings: result in words
Protocol: (§4) DSF assays were performed on a LightCycler®480 from Roche or a Mx3005P Real Time PCR machine from Stratagene. […] SYPRO®Orange from Invitrogen Molecular Probes® was used as a reporter dye to monitor the denaturing process of the proteins. Samples were assayed on a 96-well plate with final protein concentrations of 2 μM for the LightCycler®480 and 6 μM for Mx3005P. Compounds were added at a final concentration of 10 μM for the LightCycler®480 and 30 μM for Mx3005P, while the tetra acetylated histone peptide was added to a final concentration of 100 μM and 300 μM respectively. […] The temperature was raised with a step of 0.6° C. per minute from 37° C. to 95° C. with the LightCycler®480 collecting 39 measurements per ° C., and 1° C. per minute from 25° C. to 95° C. with Mx3005P, collecting fluorescence readings at the end of each interval. Each sample was run in triplicates.
(§5) Collected data was analysed by IGOR Pro 6, a scientific software tool from Wave Metrics, Inc. Analysis was done following the recommendations of Niesen et al.. Fluorescence intensity was plotted as a function of temperature, generating a sigmoidal curve described by a two-state transition from folded to unfolded protein. Curves were fitted by the following sigmoidal equation: […]
(§6) A1 and A2 are the values of minimum and maximum intensities, respectively, x0 is the inflection point and dx is the rate. Fitted curves were differentiated in IGOR Pro 6 and the maximum of the first derivative was identified using the same program. These values correspond to the inflection points of the transition curves and thus to the melting temperatures of the proteins (Tm).

[12] = Solubility observations; settings: observation in words
[13] = target: T9, Brd2(1)*(Leu110-Ala) (Homo sapiens, UniProt P25440, L110A); assay: DSF thermal shift; assay type: binding; design: Plasmids of the eight single BET bromodomain constructs Brd2(1), Brd2(2), Brd3(1), Brd3(2); His6 (N); made in house; host or cells: E. coli BL21(DE3); settings: mutant
T9 sequence (P25440 74-180 L110A limits assumed): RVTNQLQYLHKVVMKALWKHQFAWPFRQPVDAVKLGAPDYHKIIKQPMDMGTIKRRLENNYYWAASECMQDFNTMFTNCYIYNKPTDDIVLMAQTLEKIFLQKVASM
Protocol: as §4, §5, §6

[14] = target: T10, Brd2(2)*(Leu383-Ala) (Homo sapiens, UniProt P25440, L383A); assay: DSF thermal shift; assay type: binding; design: Plasmids of the eight single BET bromodomain constructs Brd2(1), Brd2(2), Brd3(1), Brd3(2); His6 (N); made in house; host or cells: E. coli BL21(DE3); settings: mutant
T10 sequence (P25440 344-453 L383A limits assumed): as the sequence (P25440 344-453 limits assumed) above, with L40A counted along it
Protocol: as §4, §5, §6

[15] = target: T9, Brd2(1)*(Leu110-Ala); assay: ITC reverse titration of protein into compound; assay type: binding; design: Plasmids of the eight single BET bromodomain constructs Brd2(1), Brd2(2), Brd3(1), Brd3(2), Brd4(1), Brd4(2), Brdt(1) and Brdt(2); His6 (N); made in house; host or cells: E. coli BL21(DE3)
Protocol: as §1, §2, §3

[16] = target: T10, Brd2(2)*(Leu383-Ala); assay: ITC reverse titration of protein into compound; assay type: binding; design: Plasmids of the eight single BET bromodomain constructs Brd2(1), Brd2(2), Brd3(1), Brd3(2), Brd4(1), Brd4(2), Brdt(1) and Brdt(2); His6 (N); made in house; host or cells: E. coli BL21(DE3); settings: ITC 30° C., 1% DMSO
Protocol: as §1, §2, §3

T1 sequence (P25440 74-180 limits assumed): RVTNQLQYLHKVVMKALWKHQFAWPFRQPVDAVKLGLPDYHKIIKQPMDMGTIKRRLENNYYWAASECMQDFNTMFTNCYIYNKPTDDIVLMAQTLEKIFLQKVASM

## COC(=O)CC1N=C(c2ccc(Cl)cc2)c2cc(OC)cc(C)c2-n2c(C)nnc21 (centres unmarked) [Compound 4, Methyl 2-(6-(4-chlorophenyl)-8-methoxy-1,10-dimethyl-4H benzo[f][1,2,4]triazolo[4,3-a][1,4]diazepin-4-yl)acetate]
[1]
  Thermal stabilisation brd2(1): 0.7 ± 0.2 °C
  ΔTm Brd2(1): 0.7 ± 0.2 K
[2]
  Thermal stabilisation brd2(1)V103A: 0.5 ± 0.3 °C
  ΔTm Brd2(1)*(Val103-Ala): 0.5 ± 0.3 K
[3]
  Thermal stabilisation brd2(2): 4.0 ± 0.1 °C
  ΔTm Brd2(2): 4.0 ± 0.1 K
[4]
  Thermal stabilisation brd2(2)V376A: 1.2 ± 0.1 °C
  ΔTm Brd(2)*(Val376-Ala): 1.2 ± 0.1 K

## CCC[C@@H](C(=O)OC)[C@@H]1N=C(c2ccc(Cl)cc2)c2cc(OC)ccc2-n2c(C)nnc21 (racemic) [Compound 12, (+−)-methyl (R)-2-((S)-6-(4-chlorophenyl)-8-methoxy-1-methyl-4H-benzo[f][1,2,4]triazolo[4,3-a][1,4]diazepin-4-yl)pentanoate]
[1]
  ΔTm Brd2(1): 1.7 ± 0.2 K
[3]
  ΔTm Brd2(2): 2.1 ± 0.1 K
[5]
  ΔTm Brd4(1): 2.9 ± 0.7 K
[6]
  ΔTm Brd4(2): 3.2 ± 0.7 K
[7]
  ΔTm Brd4(1)* (L094A): 6.4 ± 0.8 K
[8]
  ΔTm Brd4(2)* (L387A): 6.7 ± 0.2 K
[9]
  Kd: 5880 ± 1210 nM
[9]; ITC 30° C., 1% DMSO
  ΔH Brd2(1): -11.49 ± 1.048 kcal/mol
[10]
  ΔH Brd2(2): -9.52 ± 0.5449 kcal/mol
[10]; Kd Brd2(2)
  Kd: 2390 ± 1480 nM
[11]
  Thermal stabilization of Brd2 mutants versus wild types (FIG. 15): smaller shifts
[12]
  Solubility: lower than that for compounds with smaller bumps
[13]
  ΔTm Brd2(1)*(Leu110-Ala): 4.0 ± 0.4 K
[14]
  ΔTm Brd2(2)*(Leu383-Ala): 5.0 ± 0.1 K
[15]
  Kd: 400 ± 82.4 nM
[15]; ITC 30° C., 1% DMSO
  ΔH Brd2(1)* (Leu110-Ala): −11160 ± 241.8 cal/mol
[16]
  ΔH Brd2(2)* (Leu383-Ala): -7.095 ± 0.1069 kcal/mol
[16]; Kd Brd2(2)* (Leu383-Ala)
  Kd: 265 ± 53.9 nM
